Source: ChEMBL document CHEMBL5154933, “Development of Lipo-γ-AA Peptides as Potent Antifungal Agents” (J Med Chem, 2022)

Tests used:
[1] = Toxicity against Galleria mellonella larva infected with Candida albicans SC5314 assessed as increase in survival rate at 8 mg/kg measured for 14 days; format: organism-based; details: in vivo, 336 h, time 14 day
Cryptococcus neoformans [2] = experiment: Antifungal activity against Cryptococcus neoformans H99 assessed as fungal growth inhibition by broth microdilution assay; format: functional
Cryptococcus neoformans [3] = experiment: Antifungal activity against Cryptococcus neoformans 5-FC assessed as fungal growth inhibition by broth microdilution assay; format: functional
[4] = tested on: Cryptococcus deuterogattii; experiment: Antifungal activity against Cryptococcus gattii VGII R265 assessed as fungal growth inhibition by broth microdilution assay; format: functional, Cryptococcus gattii species complex
Candida albicans [5] = experiment: Antifungal activity against Candida albicans SC5314 assessed as fungal growth inhibition by broth microdilution assay; format: functional
Candida albicans [6] = experiment: Antifungal activity against Candida albicans CARG5 assessed as fungal growth inhibition by broth microdilution assay; format: functional
Candida albicans [7] = experiment: Antifungal activity against Candida albicans CA17 assessed as fungal growth inhibition by broth microdilution assay; format: functional
Candida albicans [8] = experiment: Antifungal activity against Candida albicans 28A assessed as fungal growth inhibition by broth microdilution assay; format: functional
Candida parapsilosis = experiment: Antifungal activity against Candida parapsilosis ATCC 22019 assessed as fungal growth inhibition by broth microdilution assay; format: functional; details: Lodderomyces parapsilosis
Pichia kudriavzevii = experiment: Antifungal activity against Candida krusei ATCC6258 assessed as fungal growth inhibition by broth microdilution assay; format: functional
Mucor racemosus [9] = experiment: Antifungal activity against Mucor racemosus MZ140 assessed as fungal growth inhibition by broth microdilution assay; format: functional
Mucor racemosus [10] = experiment: Antifungal activity against Mucor racemosus R715 assessed as fungal growth inhibition by broth microdilution assay; format: functional
Aspergillus fumigatus [11] = experiment: Antifungal activity against Aspergillus fumigatus AF293 assessed as fungal growth inhibition by broth microdilution assay; format: functional
Aspergillus fumigatus [12] = experiment: Antifungal activity against Aspergillus fumigatus shjt40 assessed as fungal growth inhibition by broth microdilution assay; format: functional
Candida albicans [13] = experiment: Fungicidal activity against Candida albicans SC5314 assessed as fungal growth inhibition incubated for 24 hrs by resazurin dye based assay; format: functional
[14] = Hemolytic activity in human RBC incubated for 1 hr by microplate reader method; format: toxicity, cell-based, Erythrocyte; details: red blood cells (erythrocytes)
[15] = Selectivity ratio of HC50 for hemolytic activity in human RBC to MIC for antifungal activity against Cryptococcus neoformans H99; format: toxicity; details: red blood cells (erythrocytes)
[16] = Selectivity ratio of HC50 for hemolytic activity in human RBC to MIC for antifungal activity against Cryptococcus neoformans 5-FC; format: toxicity; details: red blood cells (erythrocytes)
[17] = Selectivity ratio of HC50 for hemolytic activity in human RBC to MIC for antifungal activity against Cryptococcus gattii R265; format: toxicity; details: red blood cells (erythrocytes)
[18] = Selectivity ratio of HC50 for hemolytic activity in human RBC to MIC for antifungal activity against Candida albicans SC5314; format: toxicity; details: red blood cells (erythrocytes)
[19] = Selectivity ratio of HC50 for hemolytic activity in human RBC to MIC for antifungal activity against Candida albicans CARG5; format: toxicity; details: red blood cells (erythrocytes)
[20] = Selectivity ratio of HC50 for hemolytic activity in human RBC to MIC for antifungal activity against Candida albicans CA17; format: toxicity; details: red blood cells (erythrocytes)
[21] = Selectivity ratio of HC50 for hemolytic activity in human RBC to MIC for antifungal activity against Candida albicans 28A; format: toxicity; details: red blood cells (erythrocytes)
[22] = Selectivity ratio of HC50 for hemolytic activity in human RBC to MIC for antifungal activity against Candida parapsilosis ATCC 22019; format: toxicity; details: red blood cells (erythrocytes)
[23] = Selectivity ratio of HC50 for hemolytic activity in human RBC to MIC for antifungal activity against Candida krusei ATCC6258; format: toxicity; details: red blood cells (erythrocytes)

OC(Cn1cncn1)(Cn1cncn1)c1ccc(F)cc1F [FLUCONAZOLE]
Non-Toxic: Activity [1]
1 µg/mL: MIC50 (Candida albicans [5])
2 µg/mL: MIC50 (Cryptococcus neoformans [3]) | MIC50 (Candida parapsilosis)
4 µg/mL: MIC50 (Cryptococcus neoformans [2]) | MIC50 [4]
> 16 µg/mL: MFC (Candida albicans [13])
32 µg/mL: MIC50 (Pichia kudriavzevii)
> 128 µg/mL: MIC50 (Candida albicans [6]) | MIC50 (Candida albicans [7]) | MIC50 (Candida albicans [8])
> 32 µg/mL: MIC50 (Mucor racemosus [9]) | MIC50 (Mucor racemosus [10]) | MIC50 (Aspergillus fumigatus [11]) | MIC50 (Aspergillus fumigatus [12])

CCCCCCCC/C=C\CCCCCCCC(=O)N[C@@H](CCCCN)C(=O)N[C@@H](Cc1ccccc1)CN(CC(N)=O)C(=O)CCN
> 250 µg/mL: HC50 at 1 h [14]
≤ 125: selectivity ratio [15] | selectivity ratio [16] | selectivity ratio [17] | selectivity ratio [18] | selectivity ratio [19] | selectivity ratio [20] | selectivity ratio [21] | selectivity ratio [22] | selectivity ratio [23]
4 µg/mL: MIC50 (Cryptococcus neoformans [2]) | MIC50 (Cryptococcus neoformans [3]) | MIC50 [4] | MIC50 (Candida albicans [5]) | MIC50 (Candida albicans [6]) | MIC50 (Candida albicans [7]) | MIC50 (Candida albicans [8]) | MIC50 (Candida parapsilosis) | MIC50 (Pichia kudriavzevii)

CCCCCCCCCCCCCCCC(=O)N[C@@H](CCCCN)C(=O)N[C@@H](Cc1ccccc1)CN(CC(N)=O)C(=O)CCN
4 µg/mL: MIC50 (Cryptococcus neoformans [2]) | MIC50 (Cryptococcus neoformans [3]) | MIC50 [4] | MIC50 (Candida albicans [5]) | MIC50 (Candida albicans [6]) | MIC50 (Candida albicans [7]) | MIC50 (Candida albicans [8])
> 250 µg/mL: HC50 at 1 h [14]
≤ 125: selectivity ratio [15] | selectivity ratio [16] | selectivity ratio [17] | selectivity ratio [18] | selectivity ratio [19] | selectivity ratio [20] | selectivity ratio [21] | selectivity ratio [22] | selectivity ratio [23]
2 µg/mL: MIC50 (Candida parapsilosis) | MIC50 (Pichia kudriavzevii)

CCC(C)n1ncn(-c2ccc(N3CCN(c4ccc(OCC5COC(Cn6cncn6)(c6ccc(Cl)cc6Cl)O5)cc4)CC3)cc2)c1=O (configuration not stated) [ITRACONAZOLE]
1 µg/mL: MIC50 (Mucor racemosus [9]) | MIC50 (Mucor racemosus [10]) | MIC50 (Aspergillus fumigatus [11])
> 32 µg/mL: MIC50 (Aspergillus fumigatus [12])
